# Assay results published in paper PMC12118597 (Science Advances, 2025).
# Molecular target: T1, SARS-CoV-2 NSP3 macrodomain (Mac1) (Severe acute respiratory syndrome coronavirus 2, UniProt P0DTD1)
# Assay: not given
# Assay type: binding
# Details: not given
row,SMILES,Number of isomers bound
1,Nc1nnc(SCCn2c(=O)oc3ccccc32)s1 [AVI-296],1
2,c1ccc(-n2nnnc2CSc2nnc(NC3CC3)s2)cc1 [AVI-286],1

# Same assay, conditions: P43 crystal form, repeated attempts; result in words
row,SMILES,binding by crystal soaking
1,COC1CCCN(S(=O)(=O)c2cc(Cl)cnc2N)C1 (stereo not shown) [AVI-290],failed to observe binding
2,Nc1ncc(Cl)cc1S(=O)(=O)N1CCCC(O)C1 (stereo not shown) [AVI-295],failed to observe binding

# Same assay, conditions: crystal soak 10 mM, P43 crystal form
SMILES,"PanDDA run, overall: Hit","PanDDA run, overall: Modeling comment"
OC[C@H]1CN2CCC[C@H]2CN1c1ncnc2[nH]ccc12 [AVI-3724],TRUE,"Weak density, not modeled"

# Same assay, conditions: crystal soak 10 mM; DMSO background map
SMILES,"PanDDA run, DMSO background map: 1-BDC","PanDDA run, DMSO background map: Hit"
OC[C@H]1CN2CCC[C@H]2CN1c1ncnc2[nH]ccc12 [AVI-3724],0.05,TRUE

# Same assay, conditions: crystal soak 10 mM; TFA/DMSO background map
SMILES,"PanDDA run, TFA/DMSO background map: 1-BDC","PanDDA run, TFA/DMSO background map: Hit"
OCC1CC2(CCOCC2)CN1c1ncnc2[nH]ccc12 (stereo not shown) [AVI-3707],0.15,TRUE
O=C(O)C(F)(F)F.OCC12CC(CN1c1ncnc3[nH]ccc13)C2 [AVI-3681],0.12,TRUE
OCC(Cc1cccs1)Nc1ncnc2[nH]ccc12 (stereo not shown) [AVI-3711],0.16,TRUE
O[C@H]1CC[C@@H]2CCN(c3ncnc4[nH]ccc34)[C@@H]21 [AVI-3664],0.15,TRUE
Cn1cc(CC(CO)Nc2ncnc3[nH]ccc23)cn1 (stereo not shown) [AVI-3657],0.09,TRUE
OCC(Nc1ncnc2[nH]ccc12)c1ccco1 (stereo not shown) [AVI-3659],0.08,TRUE
CCCC(CO)Nc1ncnc2[nH]ccc12 (stereo not shown) [AVI-3643],0.14,TRUE
OCC(Cc1nccs1)Nc1ncnc2[nH]ccc12 (stereo not shown) [AVI-3673],0.15,TRUE
OCC(Cc1c[nH]c2ccccc12)Nc1ncnc2[nH]ccc12 (stereo not shown) [AVI-3650],0.11,TRUE
OCC(CC1CCOC1)Nc1ncnc2[nH]ccc12 (stereo not shown) [AVI-3665],0.15,TRUE
OCC(COCc1ccccc1)Nc1ncnc2[nH]ccc12 (stereo not shown) [AVI-3709],0.16,TRUE
O=C(O)C(F)(F)F.OC[C@@H]1CC2(CC2)CN1c1ncnc2[nH]ccc12 [AVI-3710],0.23,TRUE
OC1CCN(c2ncnc3[nH]ccc23)C1 (stereo not shown) [AVI-3661],0.12,TRUE
OCC(O)C1CCCN1c1ncnc2[nH]ccc12 (stereo not shown) [AVI-3701],0.16,TRUE

# Same assay, conditions: ligand modeling, Mac1 crystal soak
row,SMILES,Number of isomers bound
1,CC(C)(C)C1CCC(CO)N(c2ncnc3[nH]ccc23)C1 (stereo not shown) [AVI-3719],1
2,OCC1CC2(CCOCC2)CN1c1ncnc2[nH]ccc12 (stereo not shown) [AVI-3707],1
3,O=C(O)C1CCCN1S(=O)(=O)c1cccc2nsnc12 (stereo not shown) [AVI-2],1
4,O=C(O)C(F)(F)F.OCC12CC(CN1c1ncnc3[nH]ccc13)C2 [AVI-3681],1
5,OCC(Cc1cccs1)Nc1ncnc2[nH]ccc12 (stereo not shown) [AVI-3711],1
6,O[C@H]1CC[C@@H]2CCN(c3ncnc4[nH]ccc34)[C@@H]21 [AVI-3664],1
7,Cn1cc(CC(CO)Nc2ncnc3[nH]ccc23)cn1 (stereo not shown) [AVI-3657],1
8,CCC(O)[C@H]1CCCN1c1ncnc2[nH]ccc12 (stereo partly shown) [AVI-3666],1
9,OCC1CC2(CCCC2)CN1c1ncnc2[nH]ccc12 (stereo not shown) [AVI-3708],1
10,OCC(Nc1ncnc2[nH]ccc12)c1ccco1 (stereo not shown) [AVI-3659],1
11,O[C@@H]1CN(c2ncnc3[nH]ccc23)C[C@H]1F [AVI-616],1
12,CCCC(CO)Nc1ncnc2[nH]ccc12 (stereo not shown) [AVI-3643],1
13,OCC(Cc1nccs1)Nc1ncnc2[nH]ccc12 (stereo not shown) [AVI-3673],1
14,"O[C@H]1COC[C@@H]1Nc1ncnc2[nH]ccc12 [AVI-1444, (3R,4S)-4-((7H-pyrrolo[2,3-d]pyrimidin-4-yl)amino)tetrahydrofuran-3-ol]",1
15,OCC(Cc1c[nH]c2ccccc12)Nc1ncnc2[nH]ccc12 (stereo not shown) [AVI-3650],2
16,Cc1ccc(CC(CO)Nc2ncnc3[nH]ccc23)cc1 (stereo not shown) [AVI-3683],2
17,OCC(CC1CCOC1)Nc1ncnc2[nH]ccc12 (stereo not shown) [AVI-3665],1
18,OCC(COCc1ccccc1)Nc1ncnc2[nH]ccc12 (stereo not shown) [AVI-3709],2
19,O=C(O)C(F)(F)F.OC[C@@H]1CC2(CC2)CN1c1ncnc2[nH]ccc12 [AVI-3710],1
20,OCC(O)C1CCCN1c1ncnc2[nH]ccc12 (stereo not shown) [AVI-3701],1

# Same assay, conditions: stereoisomer(s) modeled as bound, residues 201/202/203
row,SMILES,Isomers modeled
1,O[C@H]1CC[C@@H]2CCN(c3ncnc4[nH]ccc34)[C@@H]21 [AVI-3664],SRS
2,OCC(Cc1c[nH]c2ccccc12)Nc1ncnc2[nH]ccc12 (stereo not shown) [AVI-3650],"R,S"
3,Cc1ccc(CC(CO)Nc2ncnc3[nH]ccc23)cc1 (stereo not shown) [AVI-3683],"S,R"
4,OCC(COCc1ccccc1)Nc1ncnc2[nH]ccc12 (stereo not shown) [AVI-3709],"S,R"
5,O=C(O)C(F)(F)F.OC[C@@H]1CC2(CC2)CN1c1ncnc2[nH]ccc12 [AVI-3710],"S,S"

# Molecular target: T1, SARS-CoV-2 NSP3 macrodomain (Mac1)
# Assay: biochemical
# Assay type: binding
# Details: SARS CoV-2 macrodomain HTRF assay
SMILES,Ki,Ligand efficiency (binding enery per heavy atom)
O[C@H]1CC[C@@H]2CCN(c3ncnc4[nH]ccc34)[C@@H]21 [AVI-3664],26 µM,0.35
CCC(O)[C@H]1CCCN1c1ncnc2[nH]ccc12 (stereo partly shown) [AVI-3666],–,0.34
OCC1CC2(CCCC2)CN1c1ncnc2[nH]ccc12 (stereo not shown) [AVI-3708],25 µM,0.32

# Same assay, conditions: SARS CoV-2 macrodomain HTRF assay, dose-response; read-out: IC50
row,SMILES,IC50
1,O[C@H]1CC[C@@H]2CCN(c3ncnc4[nH]ccc34)[C@@H]21 [AVI-3664],28 µM
2,OCC1CC2(CCCC2)CN1c1ncnc2[nH]ccc12 (stereo not shown) [AVI-3708],27 µM

# Same assay, conditions: SARS CoV-2 macrodomain HTRF assay, single dose concentration 200 μM
row,SMILES,Average % competition
1,O[C@@H]1CN(c2ncnc3[nH]ccc23)C[C@H]1F [AVI-616],15%

# Same assay, conditions: SARS CoV-2 macrodomain HTRF assay, single dose concentration 200 μM; read-out: Average % competition
row,SMILES,inhibition at 200 µM
1,CC(C)(C)C1CCC(CO)N(c2ncnc3[nH]ccc23)C1 (stereo not shown) [AVI-3719],36%
2,OCC1CC2(CCOCC2)CN1c1ncnc2[nH]ccc12 (stereo not shown) [AVI-3707],39%
3,O=C(O)C(F)(F)F.OCC12CC(CN1c1ncnc3[nH]ccc13)C2 [AVI-3681],54%
4,OC[C@H]1CN2CCC[C@H]2CN1c1ncnc2[nH]ccc12 [AVI-3724],< 10%
5,O=C(O)C(F)(F)F.OC[C@@H]1CC2(CC2)CN1c1ncnc2[nH]ccc12 [AVI-3710],57%
6,OC1CCN(c2ncnc3[nH]ccc23)C1 (stereo not shown) [AVI-3661],11%
7,OCC(O)C1CCCN1c1ncnc2[nH]ccc12 (stereo not shown) [AVI-3701],54%

# Same assay, conditions: Single dose, concentration 200 μM
row,SMILES,Average % competition
1,OCC(Cc1cccs1)Nc1ncnc2[nH]ccc12 (stereo not shown) [AVI-3711],63%
2,Cn1cc(CC(CO)Nc2ncnc3[nH]ccc23)cn1 (stereo not shown) [AVI-3657],24%
3,OCC(Nc1ncnc2[nH]ccc12)c1ccco1 (stereo not shown) [AVI-3659],55%
4,OCC(Cc1nccs1)Nc1ncnc2[nH]ccc12 (stereo not shown) [AVI-3673],38%
5,OCC(Cc1c[nH]c2ccccc12)Nc1ncnc2[nH]ccc12 (stereo not shown) [AVI-3650],71%
6,Cc1ccc(CC(CO)Nc2ncnc3[nH]ccc23)cc1 (stereo not shown) [AVI-3683],14%
7,OCC(CC1CCOC1)Nc1ncnc2[nH]ccc12 (stereo not shown) [AVI-3665],11%
8,OCC(COCc1ccccc1)Nc1ncnc2[nH]ccc12 (stereo not shown) [AVI-3709],29%

# Same assay, conditions: Single dose, concentration 200 μM; read-out: Average % competition
row,SMILES,inhibition at 200 µM
1,CCCC(CO)Nc1ncnc2[nH]ccc12 (stereo not shown) [AVI-3643],63%

# Same assay, conditions: compound at 200 μM; mean of three to four technical replicates; read-out: % competition at 200 μM (preliminary HTRF screen)
row,SMILES,inhibition at 200 µM
1,CC(C)(C)C1CCC(CO)N(c2ncnc3[nH]ccc23)C1 (stereo not shown) [AVI-3719],36%
2,OCC1CC2(CCOCC2)CN1c1ncnc2[nH]ccc12 (stereo not shown) [AVI-3707],39%
3,O=C(O)C1CCCN1S(=O)(=O)c1cccc2nsnc12 (stereo not shown) [AVI-2],23%
4,O=C(O)C(F)(F)F.OCC12CC(CN1c1ncnc3[nH]ccc13)C2 [AVI-3681],54%
5,OCC(Cc1cccs1)Nc1ncnc2[nH]ccc12 (stereo not shown) [AVI-3711],63%
6,OC[C@H]1CN2CCC[C@H]2CN1c1ncnc2[nH]ccc12 [AVI-3724],< 10%
7,Cn1cc(CC(CO)Nc2ncnc3[nH]ccc23)cn1 (stereo not shown) [AVI-3657],24%
8,OCC(Nc1ncnc2[nH]ccc12)c1ccco1 (stereo not shown) [AVI-3659],55%
9,O[C@@H]1CN(c2ncnc3[nH]ccc23)C[C@H]1F [AVI-616],15%
10,CCCC(CO)Nc1ncnc2[nH]ccc12 (stereo not shown) [AVI-3643],63%
11,OCC(Cc1nccs1)Nc1ncnc2[nH]ccc12 (stereo not shown) [AVI-3673],38%
12,OCC(Cc1c[nH]c2ccccc12)Nc1ncnc2[nH]ccc12 (stereo not shown) [AVI-3650],71%
13,Cc1ccc(CC(CO)Nc2ncnc3[nH]ccc23)cc1 (stereo not shown) [AVI-3683],14%
14,OCC(CC1CCOC1)Nc1ncnc2[nH]ccc12 (stereo not shown) [AVI-3665],11%
15,OCC(COCc1ccccc1)Nc1ncnc2[nH]ccc12 (stereo not shown) [AVI-3709],29%
16,O=C(O)C(F)(F)F.OC[C@@H]1CC2(CC2)CN1c1ncnc2[nH]ccc12 [AVI-3710],57%
17,OC1CCN(c2ncnc3[nH]ccc23)C1 (stereo not shown) [AVI-3661],11%
18,OCC(O)C1CCCN1c1ncnc2[nH]ccc12 (stereo not shown) [AVI-3701],54%
